This note sets out measurements from article PMC12749626, “Expediting hit-to-lead progression in drug discovery through reaction prediction and multi-dimensional optimization” (Nature Communications, 2025).

One data set deals with CYP3A4 (Homo sapiens, UniProt P08684). As to the kind of experiment: Cytochrome P450 inhibition assay, CYP3A4. To be noted: liver microsomes.
The next data set deals with 5HT2B (Homo sapiens, UniProt P41595). As to the kind of experiment: biochemical. The note with it: read-out: 5HT2B percent activity or inhibition compared to the assay reference.
For a further data set, the target named is CYCLO OXYGENASE 2 (Homo sapiens, UniProt P35354). As to the kind of experiment: biochemical. The note with it: read-out: CYCLO OXYGENASE 2 percent activity or inhibition compared to the assay reference.
A further data set addresses ANDROGEN REC. (Homo sapiens, UniProt P10275). As to the kind of experiment: biochemical. The note with it: read-out: ANDROGEN REC. percent activity or inhibition compared to the assay reference.
Another data set has as its target κ OPIOID REC. (Homo sapiens, UniProt P41145). As to the kind of experiment: biochemical. To be noted: read-out: κ OPIOID REC. percent activity or inhibition compared to the assay reference.
Another data set deals with GSK-3B (Homo sapiens, UniProt P49841). As to the kind of experiment: biochemical. The note with it: read-out: GSK-3B percent activity or inhibition compared to the assay reference.
A further data set concerns the target DOPAMINE D1 REC. (Homo sapiens, UniProt P21728). As to the kind of experiment: biochemical. To be noted: read-out: DOPAMINE D1 REC. percent activity or inhibition compared to the assay reference.
The target in the next data set is ABL1 (Homo sapiens, UniProt P00519). As to the kind of experiment: biochemical. The note with it: read-out: ABL1 percent activity or inhibition compared to the assay reference.
Sequence of ABL1 (P00519 whole entry): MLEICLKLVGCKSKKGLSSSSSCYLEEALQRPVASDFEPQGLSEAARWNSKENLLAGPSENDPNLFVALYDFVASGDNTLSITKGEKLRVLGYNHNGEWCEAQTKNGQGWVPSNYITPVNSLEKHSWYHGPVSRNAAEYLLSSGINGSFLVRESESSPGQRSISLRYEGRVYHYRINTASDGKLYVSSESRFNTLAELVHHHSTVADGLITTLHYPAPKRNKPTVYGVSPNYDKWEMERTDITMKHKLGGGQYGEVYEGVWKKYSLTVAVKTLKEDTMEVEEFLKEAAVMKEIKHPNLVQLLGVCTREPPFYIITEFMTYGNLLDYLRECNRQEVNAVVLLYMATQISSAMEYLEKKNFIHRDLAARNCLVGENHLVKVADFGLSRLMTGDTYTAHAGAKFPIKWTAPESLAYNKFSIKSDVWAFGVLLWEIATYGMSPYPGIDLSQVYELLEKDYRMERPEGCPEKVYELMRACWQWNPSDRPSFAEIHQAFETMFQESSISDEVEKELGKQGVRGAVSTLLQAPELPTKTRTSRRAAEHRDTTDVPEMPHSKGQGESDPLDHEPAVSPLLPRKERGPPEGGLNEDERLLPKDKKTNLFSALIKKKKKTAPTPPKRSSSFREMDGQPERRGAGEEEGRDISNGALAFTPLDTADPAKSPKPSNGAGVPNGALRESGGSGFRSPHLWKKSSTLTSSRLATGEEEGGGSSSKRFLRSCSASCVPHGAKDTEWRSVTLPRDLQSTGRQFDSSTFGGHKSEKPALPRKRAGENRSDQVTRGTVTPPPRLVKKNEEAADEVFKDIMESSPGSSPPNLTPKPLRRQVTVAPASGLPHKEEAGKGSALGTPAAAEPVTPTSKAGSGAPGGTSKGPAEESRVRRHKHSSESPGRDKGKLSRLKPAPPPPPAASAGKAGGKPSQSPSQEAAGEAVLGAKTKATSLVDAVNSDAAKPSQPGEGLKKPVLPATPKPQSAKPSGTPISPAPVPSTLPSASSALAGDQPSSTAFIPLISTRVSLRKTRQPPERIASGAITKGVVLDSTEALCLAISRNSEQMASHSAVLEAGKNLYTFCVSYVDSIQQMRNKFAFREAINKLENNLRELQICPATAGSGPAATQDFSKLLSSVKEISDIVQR
The target of the next data set is PPARγ (Homo sapiens, UniProt P37231). Briefly: biochemical. The note with it: read-out: PPARγ percent activity or inhibition compared to the assay reference.
For the next data set, the target named is […]. M2 (Homo sapiens, UniProt P08172). As to the kind of experiment: biochemical. To be noted: read-out: […]. M2 percent activity or inhibition compared to the assay reference.
Sequence of […]. M2 (P08172 whole entry): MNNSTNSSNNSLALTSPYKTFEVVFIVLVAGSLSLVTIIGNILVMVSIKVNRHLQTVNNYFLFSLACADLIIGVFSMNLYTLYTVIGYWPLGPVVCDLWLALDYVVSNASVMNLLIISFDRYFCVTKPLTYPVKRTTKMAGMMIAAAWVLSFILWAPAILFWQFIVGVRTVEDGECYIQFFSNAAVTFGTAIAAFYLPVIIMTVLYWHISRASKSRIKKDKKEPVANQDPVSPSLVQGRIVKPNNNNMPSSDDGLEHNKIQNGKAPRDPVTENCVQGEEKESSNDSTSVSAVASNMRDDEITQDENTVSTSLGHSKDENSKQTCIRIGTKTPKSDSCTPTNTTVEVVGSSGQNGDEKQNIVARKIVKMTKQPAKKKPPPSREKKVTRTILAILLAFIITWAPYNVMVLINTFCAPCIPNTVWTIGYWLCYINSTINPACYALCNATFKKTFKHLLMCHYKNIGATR
The target of a further data set is GSK-3A (Homo sapiens, UniProt P49840). As to the kind of experiment: biochemical. To be noted: read-out: GSK-3A percent activity or inhibition compared to the assay reference.
For a further data set, the target named is HISTAMINE H1 REC. (Homo sapiens, UniProt P35367). Briefly: biochemical. To be noted: read-out: HISTAMINE H1 REC. percent activity or inhibition compared to the assay reference.
Sequence of HISTAMINE H1 REC. (P35367 whole entry): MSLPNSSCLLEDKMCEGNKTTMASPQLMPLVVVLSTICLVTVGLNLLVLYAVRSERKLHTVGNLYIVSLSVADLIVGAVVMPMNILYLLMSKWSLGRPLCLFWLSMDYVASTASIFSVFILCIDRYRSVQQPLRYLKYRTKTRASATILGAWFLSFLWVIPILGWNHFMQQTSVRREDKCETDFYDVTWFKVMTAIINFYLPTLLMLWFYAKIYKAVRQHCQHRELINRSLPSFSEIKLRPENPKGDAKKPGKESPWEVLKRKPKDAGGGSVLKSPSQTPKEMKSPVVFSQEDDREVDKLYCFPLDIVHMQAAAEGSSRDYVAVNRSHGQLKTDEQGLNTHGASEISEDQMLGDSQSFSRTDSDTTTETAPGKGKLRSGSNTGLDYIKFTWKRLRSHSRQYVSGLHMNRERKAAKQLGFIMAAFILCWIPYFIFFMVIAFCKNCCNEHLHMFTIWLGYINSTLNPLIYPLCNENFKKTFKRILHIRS
Another data set deals with 5HT3 (Homo sapiens, UniProt P46098). As to the kind of experiment: biochemical. The note with it: read-out: 5HT3 percent activity or inhibition compared to the assay reference.
A further data set has as its target CHOLECYSTOKININ 1 REC. (Homo sapiens, UniProt P32238). Briefly: biochemical. To be noted: read-out: CHOLECYSTOKININ 1 REC. percent activity or inhibition compared to the assay reference.
The next data set concerns the target ANGIOTENSIN II REC. 1 (Homo sapiens, UniProt P30556). As to the kind of experiment: biochemical. To be noted: read-out: ANGIOTENSIN II REC. 1 percent activity or inhibition compared to the assay reference.
The target of a further data set is PHOSPHODIESTERASE 4D2 (Homo sapiens, UniProt Q08499). Briefly: biochemical. To be noted: read-out: PHOSPHODIESTERASE 4D2 percent activity or inhibition compared to the assay reference.
The target of data set [1] is T1, ZAP70 (Homo sapiens, UniProt P43403). Briefly: biochemical. To be noted: read-out: ZAP70 percent activity or inhibition compared to the assay reference.
Data set [2] deals with T2, MONOAMINE OXIDASE-A (Homo sapiens, UniProt P21397). Briefly: biochemical. The note with it: read-out: MONOAMINE OXIDASE-A percent activity or inhibition compared to the assay reference.
The next data set addresses PHOSPHODIESTERASE 3B (Homo sapiens, UniProt Q13370). As to the kind of experiment: biochemical. To be noted: read-out: PHOSPHODIESTERASE 3B percent activity or inhibition compared to the assay reference.
Data set [3] is described as follows: Microsomal clearance, mouse microsomes.
In another data set the target is CYP2D6 (Homo sapiens, UniProt P10635). Briefly: Cytochrome P450 inhibition assay, CYP2D6. The note with it: liver microsomes. Background: Liver microsomes are vesicles of endoplasmic reticulum, rich in cytochrome P450 enzymes.
Sequence of CYP2D6 (P10635 whole entry): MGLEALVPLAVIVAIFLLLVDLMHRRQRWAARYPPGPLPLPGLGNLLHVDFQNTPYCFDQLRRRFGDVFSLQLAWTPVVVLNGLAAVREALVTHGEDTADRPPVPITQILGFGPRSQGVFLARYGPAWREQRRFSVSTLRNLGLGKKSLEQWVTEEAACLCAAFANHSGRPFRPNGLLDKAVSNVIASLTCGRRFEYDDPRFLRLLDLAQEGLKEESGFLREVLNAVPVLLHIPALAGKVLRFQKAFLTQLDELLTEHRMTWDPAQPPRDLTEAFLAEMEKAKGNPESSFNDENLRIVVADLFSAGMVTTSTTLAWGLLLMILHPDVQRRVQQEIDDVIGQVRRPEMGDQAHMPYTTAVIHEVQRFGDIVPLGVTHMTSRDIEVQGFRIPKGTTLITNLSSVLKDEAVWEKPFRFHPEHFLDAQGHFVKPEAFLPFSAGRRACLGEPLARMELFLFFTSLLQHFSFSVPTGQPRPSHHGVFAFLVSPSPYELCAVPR
In another data set the target is XANTHINE OXIDASE (Bos taurus, UniProt P80457). As to the kind of experiment: biochemical. The note with it: read-out: XANTHINE OXIDASE percent activity or inhibition compared to the assay reference.
Data set [4] can be described thus: Microsomal clearance, human microsomes.
Another data set deals with HIV-1 PROTEASE (Human immunodeficiency virus type 1 group M subtype B, UniProt P04585). Briefly: biochemical. The note with it: read-out: HIV-1 PROTEASE percent activity or inhibition compared to the assay reference.
The next data set concerns the target […]. M1 (Homo sapiens, UniProt P11229). As to the kind of experiment: biochemical. To be noted: read-out: […]. M1 percent activity or inhibition compared to the assay reference.
Another data set is described as follows: Solubility in 0.05M PO4-. The format is physicochemical. To be noted: for solubility: 0.05 M phosphate buffer, aqueous buffer.
For the next data set, the system named is MUSCULAR NICOTINIC REC. The note with it: 10 uM; n=2.
A further data set can be described thus: Solubility in FESSIF. The format is physicochemical.
The next data set concerns GABA-A (BENZ[…]). The note with it: 10 uM; n=2.
For a further data set, the target named is β1-ADRENOCEPTOR (Homo sapiens, UniProt P08588). The note with it: 10 uM; n=2.
In data set [5] the target is T2, MONOAMINE OXIDASE-A. To be noted: 10 uM; n=2.
Data set [6] concerns the target T1, ZAP70. The note with it: 10 uM; n=2.

Converted amounts (≈) assume the structure as drawn.

Sequence of UniProt Q13370 (Q13370 whole entry): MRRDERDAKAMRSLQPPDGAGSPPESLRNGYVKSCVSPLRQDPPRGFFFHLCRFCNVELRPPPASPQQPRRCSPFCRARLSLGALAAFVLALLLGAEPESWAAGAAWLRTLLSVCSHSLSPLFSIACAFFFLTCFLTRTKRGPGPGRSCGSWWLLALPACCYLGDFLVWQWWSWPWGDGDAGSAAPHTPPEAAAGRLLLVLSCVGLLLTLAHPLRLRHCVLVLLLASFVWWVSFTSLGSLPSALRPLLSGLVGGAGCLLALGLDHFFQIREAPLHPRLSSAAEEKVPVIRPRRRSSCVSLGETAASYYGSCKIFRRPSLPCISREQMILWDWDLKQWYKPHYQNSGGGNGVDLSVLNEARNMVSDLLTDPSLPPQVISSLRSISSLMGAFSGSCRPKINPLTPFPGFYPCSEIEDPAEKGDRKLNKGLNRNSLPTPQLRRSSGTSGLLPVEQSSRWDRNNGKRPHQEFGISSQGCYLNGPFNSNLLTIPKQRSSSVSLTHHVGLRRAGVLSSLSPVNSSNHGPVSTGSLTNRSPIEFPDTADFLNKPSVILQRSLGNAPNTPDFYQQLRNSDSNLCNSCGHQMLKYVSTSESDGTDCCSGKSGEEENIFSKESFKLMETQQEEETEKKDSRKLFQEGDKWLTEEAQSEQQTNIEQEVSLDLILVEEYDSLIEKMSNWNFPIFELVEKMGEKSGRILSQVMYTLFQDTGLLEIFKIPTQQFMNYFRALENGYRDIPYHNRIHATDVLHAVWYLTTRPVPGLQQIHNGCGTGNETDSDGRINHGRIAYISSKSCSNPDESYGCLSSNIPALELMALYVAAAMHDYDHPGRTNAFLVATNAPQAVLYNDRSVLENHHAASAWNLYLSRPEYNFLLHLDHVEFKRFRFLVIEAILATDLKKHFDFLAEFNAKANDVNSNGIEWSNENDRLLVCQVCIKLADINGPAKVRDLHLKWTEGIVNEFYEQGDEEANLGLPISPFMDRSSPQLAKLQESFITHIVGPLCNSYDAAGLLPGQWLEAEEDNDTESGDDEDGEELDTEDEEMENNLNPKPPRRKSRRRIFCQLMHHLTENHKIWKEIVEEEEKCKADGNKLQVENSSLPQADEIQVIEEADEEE
Sequence of ANGIOTENSIN II REC. 1 (P30556 whole entry): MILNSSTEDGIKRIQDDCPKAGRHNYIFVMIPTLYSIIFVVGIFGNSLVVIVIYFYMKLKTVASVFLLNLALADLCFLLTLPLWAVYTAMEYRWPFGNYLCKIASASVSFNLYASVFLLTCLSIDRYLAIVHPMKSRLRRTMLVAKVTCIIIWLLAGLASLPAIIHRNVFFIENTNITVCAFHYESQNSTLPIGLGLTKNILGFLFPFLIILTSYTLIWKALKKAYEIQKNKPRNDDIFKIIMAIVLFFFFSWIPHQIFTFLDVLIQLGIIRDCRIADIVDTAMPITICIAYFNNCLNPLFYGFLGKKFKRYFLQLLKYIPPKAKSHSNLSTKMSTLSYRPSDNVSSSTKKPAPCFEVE
Sequence of UniProt P32238 (P32238 whole entry): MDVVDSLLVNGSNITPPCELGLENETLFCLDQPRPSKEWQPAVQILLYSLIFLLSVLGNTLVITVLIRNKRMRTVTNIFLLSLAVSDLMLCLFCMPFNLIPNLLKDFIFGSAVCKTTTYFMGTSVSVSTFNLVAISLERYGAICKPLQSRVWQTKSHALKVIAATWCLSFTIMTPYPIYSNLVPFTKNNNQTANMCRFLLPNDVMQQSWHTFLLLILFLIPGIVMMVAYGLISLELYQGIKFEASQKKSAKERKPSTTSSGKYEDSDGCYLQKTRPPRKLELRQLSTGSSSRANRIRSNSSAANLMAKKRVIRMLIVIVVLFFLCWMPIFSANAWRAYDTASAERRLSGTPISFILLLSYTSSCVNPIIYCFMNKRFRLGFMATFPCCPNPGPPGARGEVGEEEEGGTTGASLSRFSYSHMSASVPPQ
Sequence of DOPAMINE D1 REC. (P21728 whole entry): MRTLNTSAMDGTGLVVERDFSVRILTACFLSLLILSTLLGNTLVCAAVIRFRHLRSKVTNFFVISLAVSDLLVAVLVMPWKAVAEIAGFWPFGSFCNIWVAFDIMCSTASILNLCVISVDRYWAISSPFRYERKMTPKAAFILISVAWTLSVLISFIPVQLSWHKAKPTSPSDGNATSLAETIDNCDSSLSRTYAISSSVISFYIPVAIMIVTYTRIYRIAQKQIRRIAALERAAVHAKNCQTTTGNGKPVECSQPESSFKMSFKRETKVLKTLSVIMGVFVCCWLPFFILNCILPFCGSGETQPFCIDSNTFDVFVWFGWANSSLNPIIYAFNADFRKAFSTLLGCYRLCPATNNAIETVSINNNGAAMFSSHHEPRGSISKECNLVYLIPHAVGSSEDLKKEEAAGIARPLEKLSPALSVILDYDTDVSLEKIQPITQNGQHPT

The inhibition is the drop in the measured response relative to a control, in per cent. By microsomal CLint is commonly meant the rate of metabolic loss divided by the concentration. Low readings indicate slow turnover, high ones rapid turnover. Broadly, the solubility is the dissolved amount per volume that the medium holds. Lower therefore signals little dissolved substance. For `O=C(c1ccc2nc(-c3cccnc3)oc2c1)N1CCN(c2nc3ccccc3c(=O)[nH]2)CC1` [Compound 17], the “CYP3A4 Inhibition” value on CYP3A4 came out at 16%. In addition, the inhibition at 10 µM was 28% at 5HT2B; 20% on CYCLO OXYGENASE 2; 6% on ANDROGEN REC.; 15% on κ OPIOID REC.; -21% at GSK-3B; 3% on DOPAMINE D1 REC.. Moreover, the inhibition at 10 µM on ABL1 was 2%; at PPARγ it was -4%; in data set […]. M2, 27%; on GSK-3A it was 8%; at HISTAMINE H1 REC., 13%; at 5HT3, 0%. For the same molecule, the inhibition at 10 µM on CHOLECYSTOKININ 1 REC. was -12%; at ANGIOTENSIN II REC. 1, -3%; at PHOSPHODIESTERASE 4D2, 21%; on ZAP70 [1] it was -2%; on MONOAMINE OXIDASE-A [2] it was 7%; at PHOSPHODIESTERASE 3B it was 2%. The inhibition at 10 µM was 2% on XANTHINE OXIDASE, 11% at HIV-1 PROTEASE and 9% in data set […]. M1. Moreover, the microsomal CLint at 1 µM in data set [3] and in data set [4] was 10 µL/min/mg throughout. Also, the “CYP2D6 Inhibition” value on CYP2D6 is on record as -24%. The molecule further had a solubility in “Solubility in 0.05M PO4-” of 4.2 µg/mL (≈ 9.28 µM).
Turning to `O=C(c1ccc2nc(-c3cnccc3C3CCCC3)oc2c1)N1CCN(c2nc3nc(Cl)ccc3o2)CC1` [Compound 23], at CYP3A4, the “CYP3A4 Inhibition” value is on record as more than 90%. The inhibition at 10 µM on 5HT2B is 3%; on CYCLO OXYGENASE 2, 4%; on ANDROGEN REC., -10%; on κ OPIOID REC. it was 18%; at GSK-3B, -20%; at DOPAMINE D1 REC. it was -1%. The inhibition at 10 µM is -8% on ABL1; 7% on PPARγ; 40% in data set […]. M2; 1% on GSK-3A; 11% at HISTAMINE H1 REC.; -6% on 5HT3. The inhibition at 10 µM on CHOLECYSTOKININ 1 REC. is 9%; at ANGIOTENSIN II REC. 1, 11%; at PHOSPHODIESTERASE 4D2 it was 20%; at ZAP70 [1] it was -27%; on MONOAMINE OXIDASE-A [2], 2%; on PHOSPHODIESTERASE 3B, -8%. For the same molecule, the results for the inhibition at 10 µM (at XANTHINE OXIDASE; at HIV-1 PROTEASE; in data set […]. M1) were 6%, 31% and 10%, respectively. The “MUSCULAR NICOTINIC REC. percent activity or inhibition compared to the assay reference” value in the data set on MUSCULAR NICOTINIC REC. is 0%. Moreover, the solubility in the data set “Solubility in FESSIF” was 1.9 µg/mL (≈ 3.59 µM); in the data set “Solubility in 0.05M PO4-”, less than 0.05 µg/mL. The “GABA-A (BENZ[…]) percent activity or inhibition compared to the assay reference” value in the data set on GABA-A (BENZ[…]) was found to be 10%. Further, the microsomal CLint at 1 µM in data set [3] amounted to 176 µL/min/mg; in data set [4], 415 µL/min/mg. For the same molecule, on CYP2D6, the “CYP2D6 Inhibition” value stood at 38%.
In the case of `O=C(c1ccc2nc(-c3cnccc3C3(C4CCC4)CC3)oc2c1)N1CCN(c2nc3nc(Cl)ccc3o2)CC1` [Compound 27], on CYP3A4, the “CYP3A4 Inhibition” value is reported as more than 90%. The “MUSCULAR NICOTINIC REC. percent activity or inhibition compared to the assay reference” value in the data set on MUSCULAR NICOTINIC REC. amounted to 2%. For the same molecule, the “β1-ADRENOCEPTOR percent activity or inhibition compared to the assay reference” value at β1-ADRENOCEPTOR is on record as 4%. Further, the “GABA-A (BENZ[…]) percent activity or inhibition compared to the assay reference” value in the data set on GABA-A (BENZ[…]) worked out at 9%. Moreover, the “MONOAMINE OXIDASE-A percent activity or inhibition compared to the assay reference” value at MONOAMINE OXIDASE-A [5] is -2%. Besides, the “CYP2D6 Inhibition” value on CYP2D6 is on record as 79%. Also, on ZAP70 [6], the “ZAP70 percent activity or inhibition compared to the assay reference” value is on record as -15%. Moreover, the “Solubility in 0.05M PO4-” value in “Solubility in 0.05M PO4-” is listed as less than 0.6 µg/mL.
`O=C(c1ccc2nc(-c3cnccc3C3CCCC3)oc2c1)N1CC2(CC(n3cnc(C4CC4)n3)C2)C1` [Compound 29]: the “CYP3A4 Inhibition” value at CYP3A4 stood at 84%. Moreover, the inhibition at 10 µM is 55% at 5HT2B; 23% at CYCLO OXYGENASE 2; 7% at ANDROGEN REC.; 32% at κ OPIOID REC.; -19% at GSK-3B; 7% at DOPAMINE D1 REC.. Moreover, the inhibition at 10 µM at ABL1 was -5%; on PPARγ, 16%; in […]. M2 it was 33%; on GSK-3A, 16%; at HISTAMINE H1 REC. it was 18%; at 5HT3 it was -2%. Also, the inhibition at 10 µM came out at 8% at CHOLECYSTOKININ 1 REC.; 15% on ANGIOTENSIN II REC. 1; 65% on PHOSPHODIESTERASE 4D2; 5% at ZAP70 [1]; 0% on MONOAMINE OXIDASE-A [2]; 6% at PHOSPHODIESTERASE 3B. The figures for the inhibition at 10 µM (at XANTHINE OXIDASE; on HIV-1 PROTEASE; in data set […]. M1) were 3%, 31% and 8%, respectively. The “MUSCULAR NICOTINIC REC. percent activity or inhibition compared to the assay reference” value in the data set with MUSCULAR NICOTINIC REC. stood at 24%. Besides, the solubility is 25 µg/mL (≈ 50.5 µM) in the data set “Solubility in FESSIF” and less than 0.05 µg/mL in the data set “Solubility in 0.05M PO4-”. Also, the “GABA-A (BENZ[…]) percent activity or inhibition compared to the assay reference” value in the data set on GABA-A (BENZ[…]) is -1%. For the same molecule, the intrinsic metabolic clearance (microsomal CLint) at 1 µM in [3] was 536 µL/min/mg; in [4], 425 µL/min/mg. At CYP2D6, the “CYP2D6 Inhibition” value amounted to 34%.
